Assay results published in the NIST ThermoML archive (doi:10.1016/j.jct.2005.04.011).

How the values were obtained:
[1] = cn = amount concentration of the nth substance listed, in mol/dm3; conditions: 101 kPa, Liquid, c1 = 0.2; for mass density: Pycnometric method
[2] = refractive index (Na D-line) (dimensionless); cn = amount concentration of the nth substance listed, in mol/dm3; conditions: 101 kPa, Liquid, Standard Abbe refractometry, c1 = 0.2

O=C[C@H](O)[C@@H](O)[C@H](O)[C@H](O)CO [D-glucose] + O
Conditions	mass density, 298.15 K [kg/m3]	mass density, 313.15 K [kg/m3]	refractive index, 298.15 K	refractive index, 303.15 K	refractive index, 308.15 K	refractive index, 313.15 K	viscosity, 298.15 K [mPa·s]	viscosity, 303.15 K [mPa·s]	viscosity, 308.15 K [mPa·s]	viscosity, 313.15 K [mPa·s]
[1]	1010.3	1005.3	–	–	–	–	1.01	0.89	0.8	0.7
[2]	–	–	1.336	1.335	1.3349	1.334	–	–	–	–
